Source: PubChem BioAssay AID248 (DTP/NCI, 2004)
Where “and” joins values, the source holds several entries; their conditions need not be identical. Identical values can stand only once. Toxic doses and inconclusive results are not listed. Rule as the data show it: active = T/C of 150% or more; inactive = T/C below 125%.

Tested on: L1210 leukemia ip in BDF1 mice, survival T/C
Experiment: NCI In Vivo Anticancer Drug Screen. Data for tumor model L1210 Leukemia (intraperitoneal) in B6D2F1 (BDF1) mice
Conditions: endpoint: mean survival time, higher = longer survival
Summary of the method: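 Transplantable tumor model; survival measured in treated vs vehicle control mice. Value = treated/control.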

[1] = dose: 100.0 mg/kg/injection, schedule: Q01DX001 (ip), vehicle: carboxymethylcellulose (CMC)
[2] = dose: 200.0 mg/kg/injection, schedule: Q01DX001 (ip), vehicle: carboxymethylcellulose (CMC)
[3] = dose: 400.0 mg/kg/injection, schedule: Q01DX001 (ip), vehicle: carboxymethylcellulose (CMC)
[4] = dose: 75.0 mg/kg/injection, schedule: Q01DX001 (ip), vehicle: other
[5] = dose: 100.0 mg/kg/injection, schedule: Q04DX003 (ip), vehicle: saline with Tween-80
[6] = dose: 200.0 mg/kg/injection, schedule: Q04DX003 (ip), vehicle: saline with Tween-80
[7] = dose: 100.0 mg/kg/injection, schedule: Q01DX009 (ip), vehicle: saline
[8] = dose: 200.0 mg/kg/injection, schedule: Q01DX009 (ip), vehicle: saline
[9] = dose: 400.0 mg/kg/injection, schedule: Q01DX009 (ip), vehicle: saline
[10] = dose: 100.0 mg/kg/injection, schedule: Q04DX003 (ip), vehicle: saline
[11] = dose: 200.0 mg/kg/injection, schedule: Q04DX003 (ip), vehicle: saline

Measured: T/C

CCCCCCCC(C(=O)O)C(CCCCCCC)C(=O)O (stereo unspecified)
inactive: dose: 6.0 mg/kg/injection, schedule: Q01DX009 (ip), vehicle: saline 89 % of control | dose: 12.0 mg/kg/injection, schedule: Q01DX009 (ip), vehicle: saline 96 % of control | dose: 12.0 mg/kg/injection, schedule: Q04DX003 (ip), vehicle: saline 98 % of control | dose: 25.0 mg/kg/injection, schedule: Q04DX003 (ip), vehicle: saline 104 % of control

CC(CCC(=O)O)C1CCC2C3CCC4CC(OC=O)CCC4(C)C3CC(=O)C12C (stereo unspecified)
inactive: dose: 100.0 mg/kg/injection, schedule: Q01DX001 (ip), vehicle: saline with Tween-80 98 % of control | dose: 200.0 mg/kg/injection, schedule: Q01DX001 (ip), vehicle: saline with Tween-80 95 % of control | dose: 400.0 mg/kg/injection, schedule: Q01DX001 (ip), vehicle: saline with Tween-80 101 % of control

COc1cc(C2c3cc4c(cc3C(O)C(CO)C2CO)OCO4)cc(OC)c1OC (stereo unspecified)
inactive: dose: 8.75 mg/kg/injection, schedule: Q01DX Z (ip), vehicle: carboxymethylcellulose (CMC) 100 % of control | dose: 11.5 mg/kg/injection, schedule: Q01DX Z (ip), vehicle: carboxymethylcellulose (CMC) 108 % of control | dose: 17.0 mg/kg/injection, schedule: Q01DX Z (ip), vehicle: carboxymethylcellulose (CMC) 113 % of control | dose: 17.5 mg/kg/injection, schedule: Q01DX Z (ip), vehicle: carboxymethylcellulose (CMC) 114 % of control | dose: 26.0 mg/kg/injection, schedule: Q01DX Z (ip), vehicle: carboxymethylcellulose (CMC) 120 % of control | dose: 35.0 mg/kg/injection, schedule: Q01DX Z (ip), vehicle: carboxymethylcellulose (CMC) 106 % of control | dose: 37.5 mg/kg/injection, schedule: Q04DX003 (ip), vehicle: saline 98 % of control | dose: 50.0 mg/kg/injection, schedule: Q01DX001 (ip), vehicle: carboxymethylcellulose (CMC) 95 % of control | dose: 70.0 mg/kg/injection, schedule: Q01DX Z (ip), vehicle: carboxymethylcellulose (CMC) 98 % of control | dose: 75.0 mg/kg/injection, schedule: Q04DX003 (ip), vehicle: saline 118 % of control | [1] 104 % of control | dose: 140.0 mg/kg/injection, schedule: Q01DX Z (ip), vehicle: carboxymethylcellulose (CMC) 100 % of control and 121 % of control | dose: 150.0 mg/kg/injection, schedule: Q04DX003 (ip), vehicle: saline 110 % of control | [2] 101 % of control | dose: 280.0 mg/kg/injection, schedule: Q01DX Z (ip), vehicle: carboxymethylcellulose (CMC) 105 % of control | [3] 98 % of control

CCC(C)NCCOC(=O)C(c1ccccc1)c1ccccc1 (stereo unspecified)
inactive: [4] 93 % of control

COc1ccc2c(c1)c1c(C)c3cnccc3c(C)c1n2CCCN1C(=O)c2ccccc2C1=O
inactive: dose: 50.0 mg/kg/injection, schedule: Q04DX003 (ip), vehicle: saline with Tween-80 94 % of control | dose: 100.0 mg/kg/injection, schedule: Q01DX009 (ip), vehicle: saline with Tween-80 96 % of control | [5] 92 % of control | dose: 200.0 mg/kg/injection, schedule: Q01DX009 (ip), vehicle: saline with Tween-80 101 % of control | [6] 93 % of control | dose: 400.0 mg/kg/injection, schedule: Q01DX001 (oral), vehicle: saline with Tween-80 110 % of control | dose: 400.0 mg/kg/injection, schedule: Q01DX009 (ip), vehicle: saline with Tween-80 101 % of control | dose: 400.0 mg/kg/injection, schedule: Q04DX003 (ip), vehicle: saline with Tween-80 94 % of control | dose: 800.0 mg/kg/injection, schedule: Q01DX001 (oral), vehicle: saline with Tween-80 108 % of control | dose: 1600.0 mg/kg/injection, schedule: Q01DX001 (oral), vehicle: saline with Tween-80 112 % of control

O=C1C=C(O)c2ccc(=O)[nH]c2C1=O
inactive: dose: 100.0 mg/kg/injection, schedule: Q01DX001 (ip), vehicle: saline 95 % of control | dose: 200.0 mg/kg/injection, schedule: Q01DX001 (ip), vehicle: saline 98 % of control

COc1ccc(C(O)c2c(CN(C)C)c3ccccc3n2C)cc1 (stereo unspecified)
inactive: dose: 100.0 mg/kg/injection, schedule: Q04DX002 (ip), vehicle: other 106 % of control

OCC1OC(O)C(O)C(O)C1O (stereo unspecified)
inactive: [7] 96 % of control | [8] 98 % of control | [9] 107 % of control | dose: 500.0 mg/kg/injection, schedule: Q01DX009 (ip), vehicle: saline 93 % of control | dose: 500.0 mg/kg/injection, schedule: Q04DX003 (ip), vehicle: saline 96 % of control | dose: 1000.0 mg/kg/injection, schedule: Q01DX009 (ip), vehicle: saline 90 % of control | dose: 1000.0 mg/kg/injection, schedule: Q04DX003 (ip), vehicle: saline 96 % of control | dose: 2000.0 mg/kg/injection, schedule: Q01DX009 (ip), vehicle: saline 106 % of control | dose: 2000.0 mg/kg/injection, schedule: Q04DX003 (ip), vehicle: saline 93 % of control | dose: 4000.0 mg/kg/injection, schedule: Q01DX009 (ip), vehicle: saline 102 % of control | dose: 4000.0 mg/kg/injection, schedule: Q04DX003 (ip), vehicle: saline 94 % of control

COC(=O)C1CCCN1C(=O)C(C)=O (stereo unspecified)
inactive: dose: 100.0 mg/kg/injection, schedule: Q04DX002 (ip), vehicle: saline 102 % of control | dose: 200.0 mg/kg/injection, schedule: Q04DX002 (ip), vehicle: saline 94 % of control | dose: 400.0 mg/kg/injection, schedule: Q04DX002 (ip), vehicle: saline 113 % of control

O=C1C=C(c2ccccc2)C(c2ccccc2)C1O (stereo unspecified)
inactive: [4] 102 % of control | dose: 150.0 mg/kg/injection, schedule: Q01DX001 (ip), vehicle: other 97 % of control

C=CCOc1ccccc1OCC=C
inactive: [1] 107 % of control | [2] 102 % of control | [3] 100 % of control

CCOC(=O)NC(C)(C)CN(C(=O)OCC)C(C)(C)CO
inactive: [10] 104 % of control | [11] 104 % of control

C=CCCCCCCCCC(=O)NC(C)C(C)(C)C (stereo unspecified)
inactive: [5] 87 % of control | [6] 98 % of control

CN(C)P(=O)(Oc1c(Cl)c(Cl)c(Cl)c(Cl)c1Cl)Oc1c(Cl)c(Cl)c(Cl)c(Cl)c1Cl
inactive: dose: 100.0 mg/kg/injection, schedule: Q04DX002 (ip), vehicle: saline with Tween-80 107 % of control | dose: 200.0 mg/kg/injection, schedule: Q04DX002 (ip), vehicle: saline with Tween-80 110 % of control | dose: 400.0 mg/kg/injection, schedule: Q04DX002 (ip), vehicle: saline with Tween-80 93 % of control

COc1ccc(OCC(=O)c2ccccc2)cc1
inactive: dose: 100.0 mg/kg/injection, schedule: Q04DX003 (ip), vehicle: Klucel (hydroxypropylcellulose) (HPC) 102 % of control | dose: 200.0 mg/kg/injection, schedule: Q04DX003 (ip), vehicle: Klucel (hydroxypropylcellulose) (HPC) 98 % of control | dose: 400.0 mg/kg/injection, schedule: Q04DX003 (ip), vehicle: Klucel (hydroxypropylcellulose) (HPC) 98 % of control

NNC(=O)CNc1ccc(F)cc1Br
inactive: dose: 100.0 mg/kg/injection, schedule: Q04DX002 (ip), vehicle: Klucel (hydroxypropylcellulose) (HPC) 101 % of control | dose: 200.0 mg/kg/injection, schedule: Q04DX002 (ip), vehicle: Klucel (hydroxypropylcellulose) (HPC) 101 % of control

C#CC1(O)CCC2C3CCc4cc(O)ccc4C3CCC21C (stereo unspecified)
inactive: dose: 50.0 mg/kg/injection, schedule: Q01DX001 (sc), vehicle: steriod suspending solution 94 % of control | dose: 100.0 mg/kg/injection, schedule: Q01DX001 (sc), vehicle: steriod suspending solution 92 % of control | dose: 200.0 mg/kg/injection, schedule: Q01DX001 (sc), vehicle: steriod suspending solution 106 % of control | dose: 400.0 mg/kg/injection, schedule: Q01DX001 (sc), vehicle: steriod suspending solution 97 % of control

O=C(Nc1ccccc1F)N(CC(O)c1ccccc1)C1CCCCC1 (stereo unspecified)
inactive: dose: 100.0 mg/kg/injection, schedule: Q01DX009 (ip), vehicle: Klucel (hydroxypropylcellulose) (HPC) 97 % of control | dose: 200.0 mg/kg/injection, schedule: Q01DX009 (ip), vehicle: Klucel (hydroxypropylcellulose) (HPC) 95 % of control | dose: 400.0 mg/kg/injection, schedule: Q01DX009 (ip), vehicle: Klucel (hydroxypropylcellulose) (HPC) 94 % of control

CCOCCc1ccccn1
inactive: [7] 113 % of control | [10] 103 % of control | [8] 100 % of control | [11] 103 % of control | [9] 96 % of control | dose: 400.0 mg/kg/injection, schedule: Q04DX003 (ip), vehicle: saline 101 % of control
